Measurements from paper PMC5268383, “Inhibition of STAT3 by Anticancer Drug Bendamustine” (PLoS ONE, 2017).

Legend:
[1] = molecular target: T1, STAT3-CFP / STAT3-YFP in HEK293 cells (Homo sapiens, UniProt P40763); assay: FRET assay of STAT3 dimerization; assay type: cell-based; settings: HEK293, 10, 20 or 50 μM, pretreatment before 50 ng/mL IL-6 stimulation
T1 construct: expressed in transfected cells; host or cells: HEK293
Protocol: The expression vectors for the fusion proteins STAT3-CFP and STAT3-YFP were prepared by the addition of STAT3 cDNA to pAmCyan1-N1 and pZsyellow1-N1. The vector mixture (1:1) was transfected into HEK293 cells with Lipofectamine 2000. The cells were cultured with 2% FBS DMEM for 48 h in a 96-well microtiter plate, treated with 0, 10, 20, or 50 μM BENDA or HP2 in a final DMSO concentration of 0.2% for 24 h, and then stimulated with 50 ng/mL IL-6 for a further 1 h. Fluorescence signals were measured (SpectraMax M5SK). The signals measured by FRET (excitation/emission: 436/528 nm) were corrected for crosstalk signals from cyan (excitation/emission: 436/488 nm) and yellow (excitation/emission: 517/528 nm).

[2] = molecular target: T2, recombinant human STAT3 SH2 domain (Homo sapiens, UniProt P40763); assay: AlphaScreen SH2 binding assay, STAT3; settings: AlphaScreen, 50 nM protein, FITC-GpYLPQTV; read-out: IC50, inhibition of STAT3-SH2 binding to phosphotyrosine peptide
T2 construct: Full-length cDNAs were obtained from a human cDNA library by PCR; Avi-tag (biotinylated in BirA-BL21) (N); made in house; host or cells: Escherichia coli BirA-BL21
Protocol: AlphaScreen assays were performed in a final reaction volume of 25 μL of the assay buffer, containing 10 mM HEPES-NaOH (pH 7.4), 50 mM NaCl, 1 mM EDTA (pH 8.0), 0.1% NP-40, and 10 ng/mL BSA in a 96-well microtiter plate at 25°C. The labeled Phospho-Tyr (pTyr) peptide probe was 5-carboxyfluorescein (FITC)-GpYLPQTV for STAT3, FITC-GpYDKPHVL for STAT1, and FITC-PSpYVNVQN for Grb2. A DMSO solution of BENDA was incubated with 50 nM of each SH2-containing protein for 15 min, 50 nM of the corresponding FITC-pTyr peptide was added, and the mixture was incubated for 90 min. Streptavidin-coated donor beads and anti-FITC acceptor beads were added and incubated for 90 min before the signals were measured with an Envision Xcite plate reader (PerkinElmer Life Sciences, Waltham, MA, USA).

[3] = molecular target: T3, cellular STAT3 in MDA-MB-468 cells (Homo sapiens, UniProt P40763); assay: Pull-down assay using Bio-BENDA, anti-STAT3 immunoprecipitation; assay type: cell-based; settings: 50 μM Bio-BENDA plus excess free drug, 4 h
T3 construct: endogenous in cells; host or cells: MDA-MB-468
Protocol: MDA-MB-468 cells were treated with biotinylated BENDA (Bio-BENDA) in the presence or absence of an excess amount of free drugs for 4 h and then lysed in PhosphoSafe™ Extraction Reagent (Merck, Darmstadt, Germany). Lysate (200 μL) was precleared with a mixture of Protein G Plus/Protein A Agarose Suspension (EMD Millipore, Billerica, MA, USA) for 1 h at 4°C and protein A and G agarose were removed by centrifugation at 13,000 rpm for 10 min. The lysate (200 μL) was immunoprecipitated with STAT3 antibody (1 μL) overnight at 4°C on a shaker and the immunocomplex was captured by the addition of a Protein G Plus/Protein A Agarose Suspension (30 μL) slurry for 1 h at 4°C. Samples were washed five times with lysis buffer and then boiled four times in SDS-PAGE sample buffer and run on an SDS-PAGE gel. The protein was transferred to a nitrocellulose membrane. The membranes were blocked in 5% skim milk in TBS/0.1% Tween 20. They were then incubated with streptavidin-HRP diluted at 1:2000 in 1.5% skim milk in TBS (pH7.4)/0.1% Tween 20 overnight at 4°C. Immunoblots were developed by using a chemiluminescent substrate.

[4] = test system: MDA-MB-453 cells (low P-STAT3); assay: WST cell proliferation assay, MDA-MB-453; assay type: cell-based, human; settings: 0.1-100 μM, 48 h, WST-8
Protocol: (§1) Cells were plated in a 96-well tissue culture plate (1000 cells per well) and incubated for 48 h. After incubation, the cells were treated with vehicle, 0.1–100 μM BENDA, or HP2 for 48 h. Samples were assayed in triplicate. After incubation, WST-8 solution (10 μL; Dojindo Molecular Technologies, Rockville, MD, USA) was added to each well and incubated at 37°C for 4 h, and the absorbance was read at 450 nm.

[5] = molecular target: T4, nuclear STAT3 of MDA-MB-468 cells (Homo sapiens, UniProt P40763); assay: STAT3 DNA binding assay (TransAM ELISA); assay type: cell-based; settings: MDA-MB-468, 24 h; BENDA 25, 50, 100 μM, HP2 100 μM
T4 construct: endogenous in cells; host or cells: MDA-MB-468
Protocol: The DNA-binding activity of STAT3 was evaluated with a TransAM ELISA kit (Active Motif, Carlsbad, CA, USA). The assay and nuclear extract preparation were performed according to the manufacturer’s instructions. Heat-denatured nuclear extract was used as a negative control. The nuclear extract (20 μg) was added to each well of a 96-well microtiter plate coated with immobilized oligonucleotides containing the STAT3 consensus binding site and incubated at room temperature for 1 h. They were incubated with anti-STAT3 antibody for 1 h at room temperature, followed by HRP-conjugated antibody for 1 h at room temperature. The developing solution was added, the reaction was terminated by the addition of stop solution, and the absorbance was measured at 450 nm with a reference wavelength of 655 nm (SpectraMax M5SK, Molecular Devices, Sunnyvale, CA, USA).

[6] = test system: MDA-MB-468 cells (high P-STAT3); assay: WST cell proliferation assay, MDA-MB-468; assay type: cell-based, human; settings: 0.1-100 μM, 48 h, WST-8
Protocol: as §1

[7] = molecular target: T5, STAT3-DNA complex (c-myc promoter) in MDA-MB-468 cells (Homo sapiens, UniProt P40763); assay: ChIP assay, c-myc promoter binding by STAT3; assay type: cell-based; settings: MDA-MB-468, 8 h; BENDA 25, 50, 100 μM, HP2 50, 100 μM
T5 construct: endogenous in cells; host or cells: MDA-MB-468
Protocol: A ChIP assay was performed with an ExactaChIP Human/Mouse STAT3 ChIP kit (R&D Systems, Minneapolis, MN, USA). MDA-MB-468 cancer cells were fixed with 1% formaldehyde and treated with the lysis buffer. After sonication, anti-STAT3 antibody or normal mouse IgG was added to the extract, followed by precipitation with Protein G Plus/Protein A Agarose Suspension. The eluted DNA fraction was used for PCR with human c-myc primers.

rhSTAT3 = molecular target: T6, rhSTAT3 (Homo sapiens, UniProt P40763); assay: Competition assay with cysteine-blocking reagent Alexa Fluor 488 C5 maleimide; assay type: binding; settings: 50 or 100 μM compound, 2 h
T6 construct: Full-length cDNAs were obtained from a human cDNA library by PCR; Avi-tag (biotinylated in BirA-BL21) (N); made in house; host or cells: Escherichia coli BirA-BL21
Protocol: rhSTAT3 (0.89 μM) in 100 mM HEPES was incubated with 10 μM Alexa Fluor 488 C5 maleimide (Invitrogen, Paisley, UK), a thiol-reactive probe, in the presence or absence of 50 or 100 μM BENDA or HP2 for 2 h at room temperature. Samples were diluted in SDS-PAGE sample buffer without boiling or 2-mercaptoethanol and run on an SDS-PAGE gel. The protein was transferred to a nitrocellulose membrane and then blotted with Ni-HRP. The Alexa-labeled rhSTAT3 was analyzed by fluorescence (excitation/emission: 493/516 nm) and western blotting with Ni-HRP.

T4 sequence (P40763 2-770 limits assumed): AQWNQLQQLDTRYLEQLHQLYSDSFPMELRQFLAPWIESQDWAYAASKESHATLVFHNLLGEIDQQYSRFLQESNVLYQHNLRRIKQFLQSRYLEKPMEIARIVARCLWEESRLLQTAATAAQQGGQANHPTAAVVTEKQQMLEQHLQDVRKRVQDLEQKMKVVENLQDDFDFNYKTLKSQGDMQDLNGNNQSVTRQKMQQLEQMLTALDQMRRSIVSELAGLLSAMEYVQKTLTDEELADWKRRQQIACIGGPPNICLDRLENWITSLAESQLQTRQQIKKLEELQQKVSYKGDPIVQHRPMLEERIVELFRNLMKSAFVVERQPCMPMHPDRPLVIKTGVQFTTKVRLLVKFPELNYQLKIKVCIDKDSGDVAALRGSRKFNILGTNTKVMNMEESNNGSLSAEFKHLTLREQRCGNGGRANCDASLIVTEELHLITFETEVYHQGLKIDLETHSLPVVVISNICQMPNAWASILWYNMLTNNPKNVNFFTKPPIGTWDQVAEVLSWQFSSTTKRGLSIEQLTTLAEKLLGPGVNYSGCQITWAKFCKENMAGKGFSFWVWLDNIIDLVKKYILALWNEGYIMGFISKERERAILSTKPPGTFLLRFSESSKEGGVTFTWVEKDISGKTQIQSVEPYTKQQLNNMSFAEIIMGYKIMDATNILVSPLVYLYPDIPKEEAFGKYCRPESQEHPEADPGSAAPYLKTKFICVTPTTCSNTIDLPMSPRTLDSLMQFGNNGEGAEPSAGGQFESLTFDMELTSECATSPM
T5 sequence (P40763 2-770 limits assumed, one chain of several): as the sequence (P40763 2-770 limits assumed) above
T3 sequence (P40763 2-770 limits assumed): as above
T1 sequence (P40763 whole entry): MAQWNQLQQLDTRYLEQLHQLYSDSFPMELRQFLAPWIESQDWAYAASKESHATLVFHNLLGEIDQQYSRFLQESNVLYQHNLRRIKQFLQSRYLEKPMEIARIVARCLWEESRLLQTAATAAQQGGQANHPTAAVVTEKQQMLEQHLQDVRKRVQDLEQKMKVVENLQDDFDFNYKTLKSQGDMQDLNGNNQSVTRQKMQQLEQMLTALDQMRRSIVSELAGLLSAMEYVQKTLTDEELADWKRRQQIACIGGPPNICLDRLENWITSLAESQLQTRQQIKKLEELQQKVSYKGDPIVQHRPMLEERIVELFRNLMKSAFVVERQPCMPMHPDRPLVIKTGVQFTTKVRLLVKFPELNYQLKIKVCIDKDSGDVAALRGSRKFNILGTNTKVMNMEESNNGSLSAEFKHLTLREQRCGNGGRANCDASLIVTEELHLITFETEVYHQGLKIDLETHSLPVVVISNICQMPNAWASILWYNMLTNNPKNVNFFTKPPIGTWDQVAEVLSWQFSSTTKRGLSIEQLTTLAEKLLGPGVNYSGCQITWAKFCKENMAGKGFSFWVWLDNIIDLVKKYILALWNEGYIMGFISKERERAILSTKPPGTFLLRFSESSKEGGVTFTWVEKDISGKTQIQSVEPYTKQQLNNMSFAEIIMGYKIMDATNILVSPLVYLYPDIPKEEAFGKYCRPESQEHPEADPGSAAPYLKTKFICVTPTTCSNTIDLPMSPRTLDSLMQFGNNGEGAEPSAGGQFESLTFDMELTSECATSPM
T6 sequence (P40763 whole entry): as above
T2 sequence (P40763 whole entry, the tested form may be a part): as the sequence (P40763 whole entry) above

`Cn1c(CCCC(=O)O)nc2cc(N(CCO)CCO)ccc21` [HP2, dihydroxy bendamustine] was tested, and the “Effect on FRET signals (STAT3 dimerization)” value [1] was “unchanged”, the IC50 [2] was > 100 µM and the “Competition of Bio-BENDA STAT3 band intensity by excess free drug” value [3] was “no reduction”. The “Inhibition of proliferation of MDA-MB-453 cells” value [4] was “did not inhibit proliferation”, the “Inhibition of STAT3 binding to oligonucleotides containing STAT3 consensus binding site” value [5] was “did not” and the “Inhibition of proliferation of MDA-MB-468 cells” value [6] was “did not inhibit proliferation”. The “Amplified c-myc promoter band in STAT3 ChIP” value [7] was “clearly detected” and the “Effect on fluorescence intensity of Alexa-labeled rhSTAT3” value (rhSTAT3) was “hardly observed”.
